# Reference: patent publication US7015207B2, “Use of N-acetyl-D-glucosamine in the manufacture of pharmaceutical useful for preventing and treating sexual disorder” (Third Military Medical University, Chinese People's …, priority 2001, dated 2006)
# Key:
# sexual disfunction [1] = assay: Test for volunteers (voluntary patient with disfunction for more than ten years); type: in vivo, human; settings: one voluntary patient, 12 capsules (500 mg/grain) by oral in three days
# Proteus Mirabilis = assay: Promoting wave test (bacterial bio-wave growth model); type: cell-based; settings: final concentration of 0.5% on LB plate, 37° C.
# Text: The following experimental examples are used to illustrate the promoting wave function, low toxicity and effectiveness for preventing and treating the sexual disfunction of the compound of the present invention (the compound of formula (I)). • I. Promoting wave test of the compound of formula (I) • 1. Experimental materials and method: • 1.1 Samples: pure compound of formula (I) • 1.2 Experimental materials: […]
# Strain: Proteus Mirabilis (which should comply with the following biological reaction characteristics: dynamics (+), urease (+), lactose (−), glucose (+), H2S (−), phenylalanine deaminase (+).
# Culture medium: modified LB culture medium (the component of the composition are: trytones of 1%, yeast extract of 0.5%, sodium chloride 1%, glucose of 0.1%, TTC of 0.002% and pH=7.2˜7.4). • 1.3 Experimental method:
# Experimental results and evaluation:
# The experiment adopts a bio-wave model which is used to research the promoting wave function of the compound of formula (I). […] Toxicological test of the compound of formula (I), including: • 1. acute toxicity test: including tests of administrating medicine by oral, intravenous injection and maximum limit amount for administration; • 2. […]
# sexual disfunction [2] = assay: Clinic tests in male patients with sexual disfunction; type: in vivo, human; settings: two weeks
# Procedure: 32 examples of male patients were picked out, who had been repeatedly treated for sexual disfunction with current treatment method, but these treatments were failed, the patients are classified clinically into heavy, medium and light degree disease, separately administrated with N-acetyl-D-glucosamine in the form of capsule by oral (500 mg/day) and alcoholic solution (50 mg/1000 ml) by oral (10 ml/day), using two weeks as a period of treatment, and before and after the administration, and comparing the condition of the patient's symptom by detecting luteinizing hormone (LH), follicular stimulating hormone (FSH), prolactin (PRL), testosterone (T), estradiol (E2) and local blood flux. […] After treatment, the curative effect was steady and could be maintained for a long time.
# [3] = 32 male patients, capsule 500 mg/day or alcoholic solution 10 ml/day by oral
smiles,measurement,setting,value
CC(=O)N[C@@H]1[C@@H](O)[C@H](O)[C@@H](CO)O[C@H]1O [N-acetyl-D-glucosamine],duration of the effect,sexual disfunction [1],keep normal over two years
same,sexual function after treatment,sexual disfunction [1],sexual function was recovered to normal
same,promoting wave function (wave pattern of concentric rings compared with control),Proteus Mirabilis,many fine waves on each ring emerged
same,cure rate,sexual disfunction [2]; [3],72%
same,total effective rate,sexual disfunction [2]; [3],90%
same,patients in whom treatment failed,"sexual disfunction [2]; of 32 male patients, oral",2 patients
same,patients turned from heavy and medium degree into light degree,"sexual disfunction [2]; of 32 male patients, oral",7 patient
same,patients who became normal after treatment,"sexual disfunction [2]; of 32 male patients, oral",23 patients
